Each structure is given as a SMILES string.

Type in all cases: cell-based
One test relates to S. aureus (ATCC29213). Nature of the test: 50% growth inhibitory concentration (IC50) determination assay, S. aureus. The conditions noted are these: Staphylococcus aureus, growth inhibition, Iso-Sensitest broth, OD 600 nm over 16 h, <0.098 μM = detection limit. The procedure:
(§1) The in vitro antimicrobial activity of the compounds against S. aureus (ATCC29213), K. pneumoniae (ATCC10031), and A. baumannii (ATCC17978), was determined according to the following procedure: The assay used a 10-points Iso-Sensitest broth medium to measure quantitatively the in vitro activity of the compounds against S. aureus ATCC29213, K. pneumoniae ATCC 10031, and A. baumannii ATCC17978. Stock compounds in DMSO were serially two-fold diluted (range from 50 to 0.097 μM final concentration) in 384 wells microtiter plates and inoculated with 49 μL the bacterial suspension in Iso-Sensitest broth medium to have a final cell concentration of ˜5×10^5 CFU/mL in a final volume/well of 50 μL/well. Microtiter plates were incubated at 35±2° C. Bacterial cell growth was determined with the measurement of optical density at k=600 nm each 20 minutes over a time course of 16 h. Growth inhibition was calculated during the logarithmic growth of the bacterial cells with determination of the concentration inhibiting 50% (IC50) of the growth.

The test system of test [1] is K. pneumoniae (ATCC10031). In words: 50% growth inhibitory concentration (IC50) determination assay, K. pneumoniae. The conditions noted are these: Klebsiella pneumoniae, growth inhibition, Iso-Sensitest broth, OD 600 nm over 16 h, <0.098 μM = detection limit. The procedure: as §1
A further test concerns A. baumannii (ATCC17978). Nature of the test: 50% growth inhibitory concentration (IC50) determination assay, A. baumannii. The conditions noted are these: Acinetobacter baumannii, growth inhibition, Iso-Sensitest broth, OD 600 nm over 16 h, <0.098 = detection limit. The procedure:
as §1

Consider `CNc1cc(F)c(Cl)c2c1[nH]c1ncc(-c3cnc4c(c3)c(=O)c(C(=O)O)cn4C)c(N3CC[C@@]4(C[C@H]4N)C3)c12` [Example 4.01, 6-[4-[(2R,3R)-2-Amino-5-azaspiro[2.4]heptan-5-yl]-5-chloro-6-fluoro-8-(methylamino)-9H-pyrido[2,3-b]indol-3-yl]-1-methyl-4-oxo-1,8-naphthyridine-3-carboxylic acid], for which the IC50 with S. aureus (ATCC29213) is below 0.098 µM; in test [1] it was below 0.098 µM; in the test with A. baumannii (ATCC17978), 0.0765 µM.
Consider `CCn1cc(C(=O)O)c(=O)c2cc(-c3cnc4[nH]c5c(NC)cc(F)c(F)c5c4c3N3CCC(CN)C3)cnc21` (stereo not drawn) [Example 1.04, 6-(4-(3-(Aminomethyl)pyrrolidin-1-yl)-5,6-difluoro-8-(methylamino)-9H-pyrido[2,3-b]indol-3-yl)-1-ethyl-4-oxo-1,4-dihydro-1,8-naphthyridine-3-carboxylic acid], for which the values for the IC50 (in the test with S. aureus (ATCC29213); in test [1]; in the test on A. baumannii (ATCC17978)) were 0.572 µM, 0.11 µM and 1.33 µM, respectively.
`CNc1cc(F)c(C#N)c2c1[nH]c1ncc(-c3cnc4c(c3)c(=O)c(C(=O)O)cn4C)c(N3C[C@H]4CC[C@@H](N)[C@H]4C3)c12` (relative stereo) [Example 1.13, 6-[5-Cyano-6-fluoro-8-(methylamino)-4-[rel-(3aR,4R,6aS)-4-amino-3,3a,4,5,6,6a-hexahydro-1H-cyclopenta[c]pyrrol-2-yl]-9H-pyrido[2,3-b]indol-3-yl]-1-methyl-4-oxo-1,8-naphthyridine-3-carboxylic acid]: the IC50 in the test with S. aureus (ATCC29213) came to 0.151 µM; in test [1] it was 0.128 µM; with A. baumannii (ATCC17978), 2.79 µM.
Turning to `CNc1cc(F)c(Cl)c2c1[nH]c1ncc(-c3cnc4c(c3)c(=O)c(C(=O)O)cn4C)c(N3CC[C@]4(C[C@@H]4N)C3)c12` [Example 4.02, 6-[4-[(2S,3S)-2-amino-5-azaspiro[2.4]heptan-5-yl]-5-chloro-6-fluoro-8-(methylamino)-9H-pyrido[2,3-b]indol-3-yl]-1-methyl-4-oxo-1,8-naphthyridine-3-carboxylic acid], the IC50 was below 0.098 µM with S. aureus (ATCC29213), below 0.098 µM in test [1] and 0.0973 µM in the test on A. baumannii (ATCC17978).
For the compound `CNc1cc(F)c(F)c2c1[nH]c1ncc(-c3cnc4c(c3)c(=O)c(C(=O)O)cn4C)c(N3CCC4(C[C@H]4N)C3)c12` (mixture of isomers) [Example 2.02, Cis-6-[4-(2-amino-5-azaspiro[2.4]heptan-5-yl)-5,6-difluoro-8-(methylamino)-9H-pyrido[2,3-b]indol-3-yl]-1-methyl-4-oxo-1,8-naphthyridine-3-carboxylic acid], the results for the IC50 (in the test on S. aureus (ATCC29213); in test [1]; with A. baumannii (ATCC17978)) were below 0.098 µM, below 0.098 µM and 0.261 µM, respectively.
As for `CNc1cc(F)c(F)c2c1[nH]c1ncc(-c3cnc4c(c3)c(=O)c(C(=O)O)cn4C)c(N3C[C@H]4CCC[C@@]4(N)C3)c12` (stereo in doubt) [Example 1.12, trans-6-(5,6-Difluoro-8-(methylamino)-4-[3a-amino-1,3,4,5,6,6a-hexahydrocyclopenta[c]pyrrol-2-yl]-9H-pyrido[2,3-b]indol-3-yl)-1-methyl-4-oxo-1,8-naphthyridine-3-carboxylic acid], the values for the IC50 (in the test with S. aureus (ATCC29213); in test [1]; with A. baumannii (ATCC17978)) were 0.448 µM, below 0.098 µM and 0.889 µM, respectively.
In the case of `CNc1cc(F)c(F)c2c1[nH]c1ncc(-c3cnc4c(c3)c(=O)c(C(=O)O)cn4C)c(N3CCC4(C[C@@H]4N)C3)c12` (mixture of isomers) [Example 2.01, Trans-6-[4-(2-amino-5-azaspiro[2.4]heptan-5-yl)-5,6-difluoro-8-(methylamino)-9H-pyrido[2,3-b]indol-3-yl]-1-methyl-4-oxo-1,8-naphthyridine-3-carboxylic acid], the IC50 was below 0.098 µM in the test on S. aureus (ATCC29213), below 0.098 µM in test [1] and 0.155 µM with A. baumannii (ATCC17978).
